Several values for one entry are separate records, joined by “and”; a condition that tells them apart may be missing. Identical values can stand only once. Inconclusive results are not listed.
System: BDF1 mice, s.c. Lewis lung carcinoma, T/C %
Test: NCI In Vivo Anticancer Drug Screen. Data for tumor model Lewis Lung Carcinoma (subcutaneous) in B6D2F1 (BDF1) mice
Protocol: The antitumor activity of compounds was measured in mice bearing transplantable tumors. Survival or tumor size were measured and the results are expressed as the measurement made in the treated group (T) divided by the measurement made in the vehicle treated control group (C). The tumor model used in this assay is Lewis Lung Carcinoma (subcutaneous) in B6D2F1 (BDF1) mice

[1] = endpoint: mean tumor weight, dose: 12.5 mg/kg/injection, schedule: Q01DX011 (ip), vehicle: saline, higher = larger tumour
[2] = endpoint: mean tumor weight, dose: 12.5 mg/kg/injection, schedule: Q01DX011 (sc), vehicle: steriod suspending solution, higher = larger tumour
[3] = endpoint: mean tumor weight, dose: 25.0 mg/kg/injection, schedule: Q01DX011 (sc), vehicle: steriod suspending solution, higher = larger tumour
[4] = endpoint: mean tumor weight, dose: 50.0 mg/kg/injection, schedule: Q01DX011 (sc), vehicle: steriod suspending solution, higher = larger tumour
[5] = endpoint: mean tumor weight, dose: 100.0 mg/kg/injection, schedule: Q01DX011 (sc), vehicle: steriod suspending solution, higher = larger tumour

Compound: O=P1(NCCCl)OCCCN1CCCl (stereo not drawn)
- T/C [1]: 114 % of control
- T/C (endpoint: mean tumor weight, dose: 25.0 mg/kg/injection, schedule: Q01DX011 (ip), vehicle: saline, higher = larger tumour): 14 % of control
- T/C (endpoint: mean tumor weight, dose: 50.0 mg/kg/injection, schedule: Q01DX011 (ip), vehicle: saline, higher = larger tumour): 2 % of control
- T/C (endpoint: median survival time, dose: 25.0 mg/kg/injection, schedule: Q01DX009 (ip), vehicle: Klucel (hydroxypropylcellulose) (HPC), higher = longer survival): 100 % of control
- T/C (endpoint: median survival time, dose: 50.0 mg/kg/injection, schedule: Q01DX001 (ip), vehicle: saline, higher = longer survival): 106 % of control
- T/C (endpoint: median survival time, dose: 50.0 mg/kg/injection, schedule: Q01DX009 (ip), vehicle: Klucel (hydroxypropylcellulose) (HPC), higher = longer survival): 150 % of control
- T/C (endpoint: median survival time, dose: 100.0 mg/kg/injection, schedule: Q01DX001 (ip), vehicle: saline, higher = longer survival): 124 % of control
- T/C (endpoint: median survival time, dose: 200.0 mg/kg/injection, schedule: Q01DX001 (ip), vehicle: saline, higher = longer survival): 200 % of control and 243 % of control
- T/C (endpoint: median survival time, dose: 400.0 mg/kg/injection, schedule: Q01DX001 (ip), vehicle: saline, higher = longer survival): 200 % of control and 243 % of control
- T/C (endpoint: median survival time, dose: 800.0 mg/kg/injection, schedule: Q01DX001 (ip), vehicle: saline, higher = longer survival): 243 % of control

Compound: CCCC(=O)NC1=C(N2CC2)C(=O)C(NC(=O)CCC)=C(N2CC2)C1=O
- T/C (endpoint: mean tumor weight, dose: 0.8 mg/kg/injection, schedule: Q01DX011 (ip), vehicle: other, higher = larger tumour): 81 % of control
- T/C (endpoint: mean tumor weight, dose: 1.5 mg/kg/injection, schedule: Q01DX011 (ip), vehicle: other, higher = larger tumour): 42 % of control
- T/C (endpoint: mean tumor weight, dose: 3.0 mg/kg/injection, schedule: Q01DX011 (ip), vehicle: other, higher = larger tumour): 28 % of control

Compound: O=C1CCCC2C3CC(CN12)C1CCCCN1C3 (stereo not drawn)
- T/C (endpoint: mean tumor weight, dose: 22.0 mg/kg/injection, schedule: Q01DX011 (ip), vehicle: carboxymethylcellulose (CMC), higher = larger tumour): 113 % of control
- T/C (endpoint: mean tumor weight, dose: 33.0 mg/kg/injection, schedule: Q01DX011 (ip), vehicle: carboxymethylcellulose (CMC), higher = larger tumour): 59 % of control
- T/C (endpoint: mean tumor weight, dose: 50.0 mg/kg/injection, schedule: Q01DX011 (ip), vehicle: carboxymethylcellulose (CMC), higher = larger tumour): 78 % of control
- T/C (endpoint: mean tumor weight, dose: 75.0 mg/kg/injection, schedule: Q01DX011 (ip), vehicle: carboxymethylcellulose (CMC), higher = larger tumour): 89 % of control

Compound: CN(CC(=O)O)C(=N)N
- T/C (endpoint: mean tumor weight, dose: 250.0 mg/kg/injection, schedule: Q01DX011 (ip), vehicle: saline, higher = larger tumour): 57 % of control
- T/C (endpoint: mean tumor weight, dose: 500.0 mg/kg/injection, schedule: Q01DX011 (ip), vehicle: saline, higher = larger tumour): 53 % of control
- T/C (endpoint: mean tumor weight, dose: 1000.0 mg/kg/injection, schedule: Q01DX011 (ip), vehicle: saline, higher = larger tumour): 67 % of control

Compound: CN1CCCC1c1cccnc1 (stereo not drawn)
- T/C (endpoint: mean tumor weight, dose: 1.0 mg/kg/injection, schedule: Q01DX011 (ip), vehicle: carboxymethylcellulose (CMC), higher = larger tumour): 62 % of control
- T/C (endpoint: mean tumor weight, dose: 2.0 mg/kg/injection, schedule: Q01DX011 (ip), vehicle: carboxymethylcellulose (CMC), higher = larger tumour): 75 % of control
- T/C (endpoint: mean tumor weight, dose: 4.0 mg/kg/injection, schedule: Q01DX011 (ip), vehicle: carboxymethylcellulose (CMC), higher = larger tumour): 72 % of control

Compound: O=NN(CCCl)C(=O)Nc1ccc2c(c1)OCO2
- T/C (endpoint: median survival time, dose: 3.13 mg/kg/injection, schedule: Q01DX009 (ip), vehicle: saline with Tween-80, higher = longer survival): 98 % of control
- T/C (endpoint: median survival time, dose: 6.25 mg/kg/injection, schedule: Q01DX009 (ip), vehicle: saline with Tween-80, higher = longer survival): 116 % of control
- T/C (endpoint: median survival time, dose: 12.5 mg/kg/injection, schedule: Q01DX009 (ip), vehicle: saline with Tween-80, higher = longer survival): 102 % of control

Compound: O=C(O)CP(=O)(O)O
- T/C (endpoint: median survival time, dose: 4.0 mg/kg/injection, schedule: Q01DX009 (ip), vehicle: saline, higher = longer survival): 105 % of control
- T/C (endpoint: median survival time, dose: 8.0 mg/kg/injection, schedule: Q01DX009 (ip), vehicle: saline, higher = longer survival): 97 % of control
- T/C (endpoint: median survival time, dose: 16.0 mg/kg/injection, schedule: Q01DX009 (ip), vehicle: saline, higher = longer survival): 106 % of control
- T/C (endpoint: median survival time, dose: 32.0 mg/kg/injection, schedule: Q01DX009 (ip), vehicle: saline, higher = longer survival): 91 % of control
- T/C (endpoint: median survival time, dose: 64.0 mg/kg/injection, schedule: Q01DX009 (ip), vehicle: saline, higher = longer survival): 87 % of control
- T/C (endpoint: median survival time, dose: 128.0 mg/kg/injection, schedule: Q01DX009 (ip), vehicle: saline, higher = longer survival): 86 % of control

Compound: Fc1ccc(CSc2ncnc3c2ncn3C2CCCCO2)cc1 (stereo not drawn)
- T/C (endpoint: mean tumor weight, dose: 200.0 mg/kg/injection, schedule: Q01DX011 (ip), vehicle: other, higher = larger tumour): 73 % of control
- T/C (endpoint: mean tumor weight, dose: 400.0 mg/kg/injection, schedule: Q01DX011 (ip), vehicle: other, higher = larger tumour): 33 % of control

Compound: CC(=O)OC(C)(C)/C=C/C(=O)[C@](C)(O)[C@H]1[C@H](O)C[C@@]2(C)[C@@H]3CC=C4[C@@H](C=C(O)C(=O)C4(C)C)[C@]3(C)C(=O)C[C@]12C
- T/C (endpoint: mean tumor weight, dose: 0.4 mg/kg/injection, schedule: Q01DX011 (ip), vehicle: carboxymethylcellulose (CMC), higher = larger tumour): 59 % of control
- T/C (endpoint: mean tumor weight, dose: 0.8 mg/kg/injection, schedule: Q01DX011 (ip), vehicle: carboxymethylcellulose (CMC), higher = larger tumour): 78 % of control
- T/C (endpoint: mean tumor weight, dose: 1.6 mg/kg/injection, schedule: Q01DX011 (ip), vehicle: carboxymethylcellulose (CMC), higher = larger tumour): 26 % of control
- T/C (endpoint: mean tumor weight, dose: 3.2 mg/kg/injection, schedule: Q01DX011 (ip), vehicle: carboxymethylcellulose (CMC), higher = larger tumour): 27 % of control
- T/C (endpoint: mean tumor weight, dose: 3.2 mg/kg/injection, schedule: Q01DX011 (ip), vehicle: saline, higher = larger tumour): 58 % of control
- T/C (endpoint: mean tumor weight, dose: 6.4 mg/kg/injection, schedule: Q01DX011 (ip), vehicle: saline, higher = larger tumour): 33 % of control
- T/C (endpoint: mean tumor weight, dose: 12.8 mg/kg/injection, schedule: Q01DX011 (ip), vehicle: saline, higher = larger tumour): 52 % of control

Compound: C[C@]12C=CC(=O)C=C1CC[C@@H]1[C@@H]2[C@@H](O)C[C@@]2(C)[C@H]1CC[C@]2(O)C(=O)CO
- T/C [2]: 81 % of control
- T/C [3]: 72 % of control
- T/C [4]: 51 % of control
- T/C [5]: 14 % of control
- T/C (endpoint: median survival time, dose: 40.0 mg/kg/injection, schedule: Q02DX009 (ip), vehicle: Klucel (hydroxypropylcellulose) (HPC), higher = longer survival): 99 % of control
- T/C (endpoint: median survival time, dose: 80.0 mg/kg/injection, schedule: Q02DX009 (ip), vehicle: Klucel (hydroxypropylcellulose) (HPC), higher = longer survival): 93 % of control
- T/C (endpoint: median survival time, dose: 320.0 mg/kg/injection, schedule: Q02DX009 (ip), vehicle: Klucel (hydroxypropylcellulose) (HPC), higher = longer survival): 86 % of control

Compound: C[C@@H](N)[C@@H](O)c1ccccc1
- T/C (endpoint: mean tumor weight, dose: 3.13 mg/kg/injection, schedule: Q01DX011 (ip), vehicle: saline, higher = larger tumour): 91 % of control
- T/C (endpoint: mean tumor weight, dose: 6.25 mg/kg/injection, schedule: Q01DX011 (ip), vehicle: saline, higher = larger tumour): 67 % of control
- T/C [1]: 45 % of control

Compound: CN(C)CC(C(=O)c1ccc(Br)cc1)C(Br)c1ccccc1 (stereo not drawn)
- T/C (endpoint: median survival time, dose: 5.0 mg/kg/injection, schedule: Q01DX009 (ip), vehicle: saline, higher = longer survival): 107 % of control
- T/C (endpoint: median survival time, dose: 10.0 mg/kg/injection, schedule: Q01DX009 (ip), vehicle: saline, higher = longer survival): 100 % of control
- T/C (endpoint: median survival time, dose: 40.0 mg/kg/injection, schedule: Q01DX009 (ip), vehicle: saline, higher = longer survival): 119 % of control

Compound: Clc1ccc(C(c2ccccc2Cl)C(Cl)Cl)cc1 (stereo not drawn)
- T/C (endpoint: mean tumor weight, dose: 62.5 mg/kg/injection, schedule: Q01DX011 (sc), vehicle: steriod suspending solution, higher = larger tumour): 98 % of control
- T/C (endpoint: mean tumor weight, dose: 125.0 mg/kg/injection, schedule: Q01DX011 (sc), vehicle: steriod suspending solution, higher = larger tumour): 113 % of control
- T/C (endpoint: mean tumor weight, dose: 250.0 mg/kg/injection, schedule: Q01DX011 (sc), vehicle: steriod suspending solution, higher = larger tumour): 84 % of control
- T/C (endpoint: mean tumor weight, dose: 500.0 mg/kg/injection, schedule: Q01DX011 (sc), vehicle: steriod suspending solution, higher = larger tumour): 99 % of control

Compound: N=[N+]=CC(=O)OCC(N)C(=O)O (stereo not drawn)
- T/C (endpoint: mean tumor weight, dose: 2.5 mg/kg/injection, schedule: Q01DX011 (ip), vehicle: saline, higher = larger tumour): 76 % of control and 81 % of control
- T/C (endpoint: mean tumor weight, dose: 10.0 mg/kg/injection, schedule: Q01DX011 (ip), vehicle: saline, higher = larger tumour): 24 % of control and 31 % of control

Compound: C[C@H]1CC[C@@]2(NC1)O[C@H]1C[C@H]3[C@@H]4CC[C@H]5C[C@@H](O)CC[C@]5(C)[C@H]4CC[C@]3(C)[C@H]1[C@@H]2C
- T/C (endpoint: mean tumor weight, dose: 3.13 mg/kg/injection, schedule: Q01DX011 (sc), vehicle: steriod suspending solution, higher = larger tumour): 83 % of control
- T/C (endpoint: mean tumor weight, dose: 6.25 mg/kg/injection, schedule: Q01DX011 (sc), vehicle: steriod suspending solution, higher = larger tumour): 108 % of control
- T/C [2]: 96 % of control
- T/C [3]: 96 % of control and 105 % of control
- T/C [4]: 119 % of control
- T/C [5]: 117 % of control
- T/C (endpoint: mean tumor weight, dose: 200.0 mg/kg/injection, schedule: Q01DX011 (sc), vehicle: steriod suspending solution, higher = larger tumour): 110 % of control
- T/C (endpoint: mean tumor weight, dose: 400.0 mg/kg/injection, schedule: Q01DX011 (sc), vehicle: steriod suspending solution, higher = larger tumour): 93 % of control

Source: PubChem BioAssay AID270 (DTP/NCI, 2004)
